Source: patent US4096259A, “Non-amphetaminic psychostimulating compositions of 1,4-disubstituted piperazines” (priority 1975, dated 1978)

Legend:
paw vessels of the dog = test: In vivo spasmolytic action on paw vessels of the dog; conditions: papaverine hydrochloride = 1
Description: (§1) Table V below gives, by way of example, the complementary pharmacological activities such as antiserotonin, adrenolytic and atropinic activities for derivatives N° 21, 23 and 33, the spasmolytic activity of which is the greatest for the rat isolated duodenum.

[1] = test system: arteritis of the lower limbs, cerebral vascular sclerosis, sequelae of hemiplegia; test: Clinical test in arteritis of the lower limbs, cerebral vascular sclerosis, sequelae of hemiplegia; assay type: in vivo, adults; conditions: 15 mg/day oral, one month
Description: By way of example, clinical tests were carried out on derivatives N° 5 and 21.

[2] = Acute toxicity (LD50) in mice, per os; conditions: mouse, in vivo, po
Description: Acute toxicity was studied by determining the LD50 in mice, the derivatives being administered per os.

rat isolated duodenum = test: In vitro papaverine spasmolytic activity: duodenum contractions in rats induced by barium chloride
Description: The papaverine spasmolytic activity was measured "in vitro" by the concentration ratio: active principle/papaverine hydrochloride concentration, which reduces duodenum contractions in rats, induced by barium chloride, by 50% according to the method of POMARET J. C., SERGANT - ODY M., POURRIAS B. and HUGUET G. (Therapie, 1969, 24, 109-143).
as §1

[3] = test system: ptose with reserpine in mice; test: Ptose antagonism with reserpine in mice; assay type: in vivo; conditions: Mus musculus, po, per os
[4] = test system: mortality with pentetrazole in mice; test: Potentiation of mortality with pentetrazole in mice; assay type: in vivo; conditions: per os
[5] = test system: dog cardiovascular system; test: Secondary action on the dog cardiovascular system, intravenous; assay type: in vivo; conditions: intravenous administration
Guinea-pig ileum = test: In vitro atropinic action on the Guinea-pig ileum; conditions: Atropine sulfate = 1
Description: as §1

sleep in mice = test: Anti-sleep activity in mice; assay type: in vivo
[6] = test system: female rat uterus in oestrus; test: In vitro anti-serotonin activity on the female rat uterus in oestrus; conditions: Methysergide = 1
Description: as §1

[7] = Group toxicity (LD50 grouped mice / LD50 isolated mice); conditions: mouse, in vivo
[8] = test system: exploration response in mice; test: Psychostimulating activity: increase of exploration response in mice (actimetry); assay type: in vivo; conditions: Mus musculus, po, per os, dose which increases exploration response by 50%
Description: The psychostimulating activity was studied by determining the dose which increases the exploration response in mice (actimetry) by 50% (ED50),according to the method described by BOISSIER J.R. and SIMON P. (Arc. Int. Pharmacolyn, 1965, 212-221158).

rabbit isolated ear = test: In vitro spasmolytic action on the rabbit isolated ear; conditions: papaverine hydrochloride = 1
Description: as §1

rabbit aorta = test: In vitro spasmolytic action on the rabbit aorta; conditions: papaverine hydrochloride = 1
Description: as §1

[9] = Chronic toxicity in rats, oral; assay type: in vivo; conditions: per os, 40 mg/kg, 6 out of 7 days, six months
[10] = test system: Guinea-pig seminal vesicle; test: In vitro adrenolytic action on the Guinea-pig seminal vesicle; conditions: Yohimbine hydrochloride = 1
Description: as §1

[11] = cerebral vascular sclerosis, 4 cases

Question: What does the source list for `CCOC(=O)CCN1CCN(CCOC(c2ccc(F)cc2)c2ccc(F)cc2)CC1.Cl.Cl` [Derivative 21, 1-(ethoxycarbonylethyl)-4[2(4,4'-difluorobenzhydryloxy)-ethyl]piperazine dihydrochloride]?
Answer: In vivo spasmolytic action on paw vessels of the dog (paw vessels of the dog): 30; Improvement of the psychic state ([1]; arteritis of the lower limbs, 8 cases): 4 times; Improvement in intellectual activity [1, 11]: once; Improvement of the psychic state [1, 11]: twice; Improvement of motor disturbances ([1]; hemiplegia sequelae, 2 cases): 0; Improvement of the psychic state ([1]; hemiplegia sequelae, 2 cases): once; LD50 [2]: 750 mg/kg; Spasmolytic activity (papaverine hydrochloride = 1) (rat isolated duodenum; in vitro, rat duodenum, barium chloride, relative to papaverine hydrochloride = 1): 8,5; spasmolytic activity for the rat isolated duodenum (in words) (rat isolated duodenum; rat isolated duodenum): greatest; spasmolytic activity of the papaverine type in the tests as a whole (in words) (rat isolated duodenum; tests as a whole): excellent spasmolytic activity; ED50 [3]: 70 mg/kg; Potentiation of mortality with pentetrazole in mice ED50 [4]: > 100 mg/kg; secondary action on the dog cardiovascular system [5]: devoid of any secondary action; In vitro atropinic action on the Guinea-pig ileum (Guinea-pig ileum): > 0,01; Anti-sleep activity in mice (sleep in mice): Nil; In vitro anti-serotonin activity on the female rat uterus in oestrus [6]: 0,07; selectivity ratio [7]: 0.4; ED50 [8]: 30 mg/kg; In vitro spasmolytic action on the rabbit isolated ear (rabbit isolated ear): 1,5; In vitro spasmolytic action on the rabbit aorta (rabbit aorta): 5; tolerance in chronic toxicity study [9]: perfectly well tolerated; In vitro adrenolytic action on the Guinea-pig seminal vesicle [10]: 4
